The text below walks through data of PubChem BioAssay (NCI).

What all share (experiment): NCI tumour cell line growth inhibition, 48 h
Assay [1] relates to 786-0 renal.
The test system of assay [2] is A498 renal.
Assay [3] relates to ACHN renal.
The test system of assay [4] is BT-549 breast.
The test system of assay [5] is CAKI-1 renal.
Assay [6] concerns DU-145 prostate.
The subject of assay [7] is HCT-15 colon.
Assay [8] concerns HS 578T breast.
Assay [9] relates to MDA-MB-435.
The test system of assay [10] is NCI-H226 lung.
The subject of assay [11] is NCI/ADR-RES ovarian.
Assay [12] relates to OVCAR-5 ovarian.
For assay [13], the system named is PC-3 prostate.
Assay [14] deals with RXF 393 renal.
Assay [15] has as its system SF-268 CNS.
Assay [16] concerns SNB-75 CNS.
The subject of assay [17] is SR leukemia.
In assay [18] the test system is TK-10 renal.
The subject of assay [19] is M14 melanoma.
Assay [20] has as its system HOP-92 NSCLC.

Molecules are shown by their SMILES.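 Compound exposure: 48 hours, 5 concentrations, 96-well plates. Definition used: TGI = concentration required for complete inhibition of growth.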

Turning to `CC(=O)OCC1OC(SC2=N/C(=C\c3cc4c(=O)c5ccccc5sc4s3)C(=O)N2c2ccccc2)C(OC(C)=O)C(OC(C)=O)C1OC(C)=O` (stereo not drawn), the TGI in assay [1], in [2], in assay [3], in assay [4], in assay [5] and in assay [6] was over 100 µM each time. The TGI in assay [7], in assay [8], in assay [9], in assay [10], in assay [11] and in [12] was over 100 µM throughout. In addition, the TGI in assay [13], in assay [14], in assay [15], in assay [16], in assay [17] and in [18] was over 100 µM throughout.

`CC(=O)N1C(c2[nH]c3ccccc3c2-c2ccccc2)CCN1c1ccccc1` (stereo not drawn): the TGI in [1], in assay [3], in [4], in assay [5], in [6] and in [7] was over 10 µM in each case. For the same molecule, the TGI in assay [8], in assay [19], in [9], in assay [10], in assay [11] and in assay [12] was over 10 µM throughout. Also, the TGI in assay [13], in assay [14], in [15], in [16], in [17] and in assay [18] was over 10 µM throughout.

Turning to `Cc1ccc(C2=Nc3cccc4cccc(c34)N2)cc1`, the TGI in [1], in [3], in [4], in assay [5], in assay [6] and in assay [7] was over 100 µM throughout. The TGI in assay [20], in [8], in [19], in assay [9], in [10] and in assay [11] was over 100 µM throughout. For the same molecule, the TGI in assay [13], in assay [14], in [15], in assay [16], in assay [17] and in assay [18] was over 100 µM in each case.

For `CC(=O)CCCCC(=O)Nc1ccc(CC(NC(=O)OC(C)(C)C)C(=O)NCC(=O)OCc2ccccc2)cc1` (stereo not drawn), the TGI in assay [1] is 49 µM; in assay [2], 60.6 µM; in assay [3] it was over 100 µM; in assay [4], 28.6 µM; in assay [5], 29.1 µM; in assay [6] it was 88.5 µM. Moreover, the TGI in assay [7] was over 100 µM; in assay [20], 68 µM; in assay [8] it was 48.4 µM; in assay [19], 55.2 µM; in assay [9] it was 36 µM; in [10], 94 µM. Further, the TGI was over 100 µM in assay [11]; over 100 µM in [12]; 27.5 µM in [13]; 54.5 µM in assay [14]; 48.3 µM in assay [15]; 56.9 µM in assay [17]. The same molecule showed a TGI in assay [18] of over 100 µM.

With `CC(=O)N1C(=O)/C(=C\C(=O)c2ccc([N+](=O)[O-])cc2)c2ccccc21`, the TGI is 29.1 µM in [1]; over 100 µM in assay [2]; 29.6 µM in assay [3]; 42.1 µM in [4]; 41.2 µM in assay [5]; over 100 µM in [6]. Besides, the TGI in [7] was 32.1 µM; in assay [8], 54.2 µM; in [19] it was over 100 µM; in assay [9], 61.2 µM; in assay [10] it was over 100 µM; in assay [11] it was over 100 µM. The TGI in assay [12] is over 100 µM; in assay [13], 58.4 µM; in assay [14], over 100 µM; in assay [15], 49.2 µM; in [16] it was 49.6 µM; in [17], 20.3 µM. The molecule further registered a TGI in assay [18] of 26.3 µM.

`S=c1sc2c(s1)SCCCCSCCCCSc1sc(=S)sc1SCCCCSCCCCS2`: the TGI in assay [1], in assay [2], in assay [3], in assay [4], in assay [5] and in assay [6] was over 100 µM throughout. The TGI in [7], in assay [8], in [19], in [9], in assay [10] and in assay [11] was over 100 µM in each case. The TGI in [12] was over 100 µM; in assay [13], over 100 µM; in assay [15], over 100 µM; in [16], 59.2 µM; in [17], over 100 µM; in assay [18], over 100 µM.

In the case of `O=C(Cc1ccccc1)NNc1nc(NNC(=O)c2ccncc2)nc(Nc2ccc([N+](=O)[O-])cc2)n1`, the TGI in assay [1], in [2], in [3], in [4], in [5] and in assay [6] was over 10 µM throughout. Also, the TGI in assay [7], in assay [20], in assay [8], in [19], in assay [9] and in assay [11] was over 10 µM throughout. Further, the TGI in [12], in assay [13], in [15], in assay [16], in assay [17] and in assay [18] was over 10 µM in each case.

`N=c1oc2cc(O)ccc2cc1C(=O)NCc1ccccc1`: the TGI in assay [1] is over 100 µM; in assay [3] it was over 100 µM; in [4] it was 71.1 µM; in [5], 69.7 µM; in [6], 56.4 µM; in assay [7] it was over 100 µM. In addition, the TGI in assay [8] is 45.4 µM; in [19], over 100 µM; in assay [9], 58.3 µM; in assay [10] it was over 100 µM; in assay [11] it was 53.5 µM; in [12], over 100 µM. Besides, the TGI in assay [13] is over 100 µM; in assay [14], 85 µM; in [15], 76.3 µM; in assay [16], 43.8 µM; in assay [17] it was 67 µM; in assay [18] it was over 100 µM.

Take `COc1ccc2oc(=N)c(C(=O)NCc3ccccc3)cc2c1`: the TGI in assay [1] was over 100 µM; in assay [2] it was 35.1 µM; in assay [3], 73.9 µM; in [4], 45.4 µM; in assay [5], over 100 µM; in assay [6], 88.8 µM. The TGI in assay [7] was over 100 µM; in assay [8], 42.7 µM; in assay [19], over 100 µM; in assay [9] it was 34.2 µM; in [10] it was 85 µM; in assay [11] it was 36.8 µM. The TGI is over 100 µM in assay [12]; over 100 µM in assay [13]; 42.4 µM in assay [14]; 52.5 µM in [15]; 35 µM in assay [16]; over 100 µM in [17]. The TGI in [18] was over 100 µM.

As for `CC(=O)N1C(Nc2ccccn2)CCN1c1ccccc1` (stereo not drawn), the TGI in assay [1], in assay [3], in assay [4], in assay [5], in assay [6] and in [7] was over 10 µM each time. Besides, the TGI in assay [20], in [8], in [19], in assay [9], in assay [10] and in assay [11] was over 10 µM throughout. The TGI in assay [12], in assay [13], in [14], in assay [15], in assay [16] and in assay [17] was over 10 µM throughout. In [18], the TGI was over 10 µM.

Take `COC12OC3(C4OC41)C(C(=O)O[C@H]3CO[Si](C)(C)C(C)(C)C)C2C(=O)Oc1ccccc1` (stereo partly drawn): the TGI in assay [1], in assay [2], in [3], in [4], in assay [5] and in assay [6] was over 100 µM throughout. Further, the TGI in [7], in [20], in [8], in [19], in assay [9] and in [10] was over 100 µM each time. Moreover, the TGI in [11], in [12], in assay [13], in assay [15], in assay [16] and in assay [17] was over 100 µM in each case. Also, the TGI in [18] was over 100 µM.
